Common to all, as to format: physicochemical
A short description of series [1]: Approximate Aqueous Solubility of Selected Solid Forms. The settings on record: ambient temperature; for solubility: water, thermodynamic from solid. The procedure:
Aliquots of various solvents were added to measured amounts of provided compounds with agitation at ambient temperature until complete dissolution was achieved, as judged by visual observation. If dissolution occurred after the addition of the first aliquot, values were reported as “>”. Results are shown in Table 18, where A is <2 mg/mL; B is <1 mg/mL.

Series [2] in a line: Physical Stability of Selected Solid Forms (vacuum oven, XRPD). The settings on record: vac. oven.
The nature of series [3]: Solubility Study of Compound 1 Form 1 (solvent aliquot addition, visual observation). The settings on record: thermodynamic from solid, read-out: Solubility at ambient temperature. Here is the method: Aliquots of various solvents were added to measured amounts of Compound 1 Form 1 with agitation at ambient temperature until complete dissolution was achieved, as judged by visual observation. […] See Table 15 below, where A is 5-20 mg/mL; B is 1-4.9 mg/mL; and C is <1 mg/mL.

The nature of series [4]: Dynamic vapor sorption (DVS) hygroscopicity. The settings on record: for Hysteresis: in % (unit assumed); for DVS weight loss upon desorption / DVS weight loss upon desorption as water: desorption from 95% to 5% RH; for post-DVS XRPD: solid recovered after DVS cycle; for DVS hysteresis observation: sorption/desorption 5-95% RH. Here is the method: Automated vapor sorption (VS) data were collected on a Surface Measurement System DVS Intrinsic instrument. Samples were not dried prior to analysis. Sorption and desorption data were collected over a range from 5% to 95% RH at 10% RH increments under a nitrogen purge. The equilibrium criterion used for analysis was less than 0.0100% weight change in 5 minutes with a maximum equilibration time of 3 hours. Data were not corrected for the initial moisture content of the samples.

Setting [5] is: visual observation, read-out: Estimated Aqueous Solubility.

In brackets after ≈: the same amount, converted by molar mass. Several values for one entry are separate records, joined by “and”; a condition that tells them apart may be missing. Identical values can stand only once.

As a reminder, the solubility is the dissolved amount per volume that the medium holds. Turning to `CC(=O)Nc1cc(Oc2cnc3nc(Nc4cc(C(F)(F)F)cn(C)c4=O)n(C)c3c2C#N)ccn1.O=S(=O)(O)c1ccccc1` [Besylate Form A, N-(4-((7-cyano-1-methyl-2-((1-methyl-2-oxo-5-(trifluoromethyl)-1,2-dihydropyridin-3-yl)amino)-1H-imidazo[4,5-b]pyridin-6-yl)oxy)pyridin-2-yl)acetamide besylate], in series [1] (setting [5]), the solubility was under 1000 µg/mL. Also, the “XRPD Result (physical stability)” value in series [2] (RT, 5 d) was “Besylate Form C”.
For `CC(=O)Nc1cc(Oc2cnc3nc(Nc4cc(C(F)(F)F)cn(C)c4=O)n(C)c3c2C#N)ccn1` [Compound 5 Form A, N-(4-((7-cyano-1-methyl-2-((1-methyl-2-oxo-5-(trifluoromethyl)-1,2-dihydropyridin-3-yl)amino)-1H-imidazo[4,5-b]pyridin-6-yl)oxy)pyridin-2-yl)acetamide camsylate], the “XRPD Result (physical stability)” value in series [2] (RT, 5 d) was “Compound 5 Form C”.
In the case of “N-(4-((7-cyano-1-methyl-2-((1-methyl-2-oxo-5-(trifluoromethyl)-1,2-dihydropyridin-3-yl)amino)-1H-imidazo[4,5-b]pyridin-6-yl)oxy)pyridin-2-yl)acetamide edisylate [Edisylate Form A]”, in series [1] (visual observation), the “Estimated Aqueous Solubility (mg/mL)” value was “B (B is <1 mg/mL)”. Besides, the “XRPD Result (physical stability)” value in series [2] (RT, 5 d) was “Edisylate Form C”.
With `CC(=O)Nc1cc(Oc2cnc3nc(Nc4cc(C(F)(F)F)cn(C)c4=O)n(C)c3c2C#N)ccn1.CS(=O)(=O)O` [Compound 4 Form A, N-(4-((7-cyano-1-methyl-2-((1-methyl-2-oxo-5-(trifluoromethyl)-1,2-dihydropyridin-3-yl)amino)-1H-imidazo[4,5-h]pyridin-6-yl)oxy)pyridin-2-yl)acetamide mesylate], the “XRPD Result (physical stability)” value in series [2] (45° C., 2 d) is on record as “Compound 4 Form B”.
As for `CC(=O)Nc1cc(Oc2cnc3nc(Nc4cc(C(F)(F)F)cn(C)c4=O)n(C)c3c2C#N)ccn1` [Compound 1 Form 1, N-(4-((7-cyano-1-methyl-2-((1-methyl-2-oxo-5-(trifluoromethyl)-1,2-dihydropyridin-3-yl)amino)-1H-imidazo[4,5-b]pyridin-6-yl)oxy)pyridin-2-yl)acetamide], the solubility in series [3] (organic solvent or mixture, solvent ACN) was under 1000 µg/mL; in series [3] (organic solvent or mixture, solvent DCM) it was under 1000 µg/mL; in series [3] (organic solvent or mixture, solvent DMA), 5000 to 20000 µg/mL (≈ 10000 to 40100 µM); in series [3] (organic solvent or mixture, solvent MeOH), under 1000 µg/mL; in series [3] (organic solvent or mixture, solvent TFE), 5000 to 20000 µg/mL (≈ 10000 to 40100 µM); in series [3] (organic solvent or mixture, solvent THF) it was 1000 to 4900 µg/mL (≈ 2010 to 9830 µM). For the same molecule, the solubility in series [3] (organic solvent or mixture, solvent acetone) is under 1000 µg/mL; in series [3] (water, solvent H2O), under 1000 µg/mL. Besides, the “Desorp Mass Change (%)” value in series [4] (Target RH 5.0%) is given as −0.011%; in series [4] (Target RH 15.0%), 0.103%; in series [4] (Target RH 25.0%) it was 3.654%; in series [4] (Target RH 35.0%), 3.877%; in series [4] (Target RH 45.0%) it was 4.084%; in series [4] (Target RH 55.0%), 4.203%. The “Desorp Mass Change (%)” value in series [4] (Target RH 65.0%) is given as 4.403%; in series [4] (Target RH 75.0%) it was 4.578%; in series [4] (Target RH 85.0%), 4.677%; in series [4] (Target RH 95.0%), 4.804%. For the same molecule, the “Sorp Mass Change (%)” value in series [4] (Target RH 5.0%) came out at 0.001%; in series [4] (Target RH 15.0%), 0.068%; in series [4] (Target RH 25.0%) it was 0.118%; in series [4] (Target RH 35.0%), 0.292%; in series [4] (Target RH 45.0%), 0.396%; in series [4] (Target RH 55.0%), 3.757%. Also, the “Sorp Mass Change (%)” value in series [4] (Target RH 65.0%) is listed as 4.049%; in series [4] (Target RH 75.0%) it was 4.282%; in series [4] (Target RH 85.0%) it was 4.534%; in series [4] (Target RH 95.0%), 4.804%. For the same molecule, the Hysteresis amounted to 0.036 in series [4] (Target RH 15.0%); 3.536 in series [4] (Target RH 25.0%); 3.585 in series [4] (Target RH 35.0%); 3.687 in series [4] (Target RH 45.0%); 0.446 in series [4] (Target RH 55.0%); 0.354 in series [4] (Target RH 65.0%). In addition, the Hysteresis in series [4] (Target RH 75.0%) is recorded as 0.296; in series [4] (Target RH 85.0%), 0.142. The molecule further displayed a DVS weight loss in series [4] (desorption from 25% to 15% RH) of 3.55%. The “DVS weight loss as water” value in series [4] (desorption from 25% to 15% RH) was 1.0 mol/mol H2O. For the same molecule, the “DVS weight loss upon desorption” value in series [4] amounted to 4.82%. The “DVS weight loss upon desorption as water” value in series [4] was 1.4 mol/mol H2O. In addition, in series [4], the “post-DVS XRPD” value was “very similar”. Further, the DVS weight gain in series [4] (sorption from 5% to 95% RH) was determined as 4.80%; in series [4] (sorption from 45% to 55% RH) it was 3.36%. In addition, the figures for the “DVS weight gain as water uptake” value in series [4] (sorption from 5% to 95% RH) and in series [4] (sorption from 45% to 55% RH) were 1.4 mol/mol H2O and 1.0 mol/mol H2O, respectively. In addition, the DVS hysteresis observation entry in series [4] is listed as “hysteresis evident”.
Regarding `CC(=O)Nc1cc(Oc2cnc3nc(Nc4cc(C(F)(F)F)cn(C)c4=O)n(C)c3c2C#N)ccn1.Cl` [Compound 2 Form A, N-(4-((7-cyano-1-methyl-2-((1-methyl-2-oxo-5-(trifluoromethyl)-1,2-dihydropyridin-3-yl)amino)-1H-imidazo[4,5-b]pyridin-6-yl)oxy)pyridin-2-yl)acetamide hydrochloride], the solubility in series [1] (setting [5]) is under 2000 µg/mL; in series [1] (read-out: Aqueous solubility, visually approximated) it was under 2000 µg/mL. Moreover, the “Desorp Mass Change (%)” value in series [4] (Target RH 5.0%) was −0.0582%; in series [4] (Target RH 15.0%), 0.0326%; in series [4] (Target RH 25.0%) it was 0.0900%; in series [4] (Target RH 35.0%), 0.1559%; in series [4] (Target RH 45.0%), 0.2304%; in series [4] (Target RH 55.0%) it was 0.3159%. The “Desorp Mass Change (%)” value in series [4] (Target RH 65.0%) is 0.4283%; in series [4] (Target RH 75.0%), 0.5577%; in series [4] (Target RH 85.0%), 0.6871%; in series [4] (Target RH 95.0%), 0.9477%. The “Sorp Mass Change (%)” value in series [4] (Target RH 5.0%) is on record as 0.0009%; in series [4] (Target RH 15.0%), 0.0521%; in series [4] (Target RH 25.0%), 0.0998%; in series [4] (Target RH 35.0%), 0.1539%; in series [4] (Target RH 45.0%) it was 0.2007%; in series [4] (Target RH 55.0%), 0.2634%. Also, the “Sorp Mass Change (%)” value in series [4] (Target RH 65.0%) came to 0.3387%; in series [4] (Target RH 75.0%), 0.5032%; in series [4] (Target RH 85.0%), 0.6403%; in series [4] (Target RH 95.0%), 0.9477%. In addition, the Hysteresis in series [4] (Target RH 15.0%) was −0.0195; in series [4] (Target RH 25.0%), −0.0098; in series [4] (Target RH 35.0%) it was 0.0020; in series [4] (Target RH 45.0%) it was 0.0297; in series [4] (Target RH 55.0%) it was 0.0525; in series [4] (Target RH 65.0%), 0.0896. Further, the Hysteresis in series [4] (Target RH 75.0%) turned out to be 0.0545; in series [4] (Target RH 85.0%), 0.0468. The “DVS weight loss upon desorption as water” value in series [4] is 0.3 mol/mol H2O. For the same molecule, the “DVS weight loss upon desorption” value in series [4] (hydrochloride) is 1.01% and 1.0059%. Besides, the “post-DVS XRPD” value in series [4] is listed as “Compound 2 Form A”. In addition, the “DVS weight gain as water uptake” value in series [4] (sorption from 5% to 95% RH) is given as 0.3 mol/mol H2O. Also, the DVS weight gain in series [4] (sorption from 5% to 95% RH, hydrochloride) was 0.95% and 0.9468%. Also, the DVS hysteresis observation result in series [4] is given as “No hysteresis was observed”.
Consider `Br.CC(=O)Nc1cc(Oc2cnc3nc(Nc4cc(C(F)(F)F)cn(C)c4=O)n(C)c3c2C#N)ccn1` [Compound 3 Form A, N-(4-((7-cyano-1-methyl-2-((1-methyl-2-oxo-5-(trifluoromethyl)-1,2-dihydropyridin-3-yl)amino)-1H-imidazo[4,5-b]pyridin-6-yl)oxy)pyridin-2-yl)acetamide hydrobromide], for which, in series [2] (45° C., 2 d), the “XRPD Result (physical stability)” value is recorded as “Compound 3 Form A +”.
For the molecule `CC(=O)Nc1cc(Oc2cnc3nc(Nc4cc(C(F)(F)F)cn(C)c4=O)n(C)c3c2C#N)ccn1.O=P(O)(O)O` [Phosphate Form A, N-(4-((7-cyano-1-methyl-2-((1-methyl-2-oxo-5-(trifluoromethyl)-1,2-dihydropyridin-3-yl)amino)-1H-imidazo[4,5-b]pyridin-6-yl)oxy)pyridin-2-yl)acetamide phosphate], the solubility in series [1] (setting [5]) was under 1000 µg/mL. Moreover, in series [2] (RT, 5 d), the “XRPD Result (physical stability)” value is on record as “Phosphate Form A”.
The matching figures for `CC(=O)Nc1cc(Oc2cnc3nc(Nc4cc(C(F)(F)F)cn(C)c4=O)n(C)c3c2C#N)ccn1.CCS(=O)(=O)O` [Esylate Form A, N-(4-((7-cyano-1-methyl-2-((1-methyl-2-oxo-5-(trifluoromethyl)-1,2-dihydropyridin-3-yl)amino)-1H-imidazo[4,5-b]pyridin-6-yl)oxy)pyridin-2-yl)acetamide esylate]: under 1000 µg/mL and “Esylate Form A”.

The values are drawn from patent US12162881B2, “Forms and compositions of inhibitors of JAK2” (Ajax Therapeutics, Inc., priority 2021, dated 2024).
